Measurements taken from publication PMC9228955, “Synthesis, Physicochemical, Labeling and In Vivo Characterization of ^44Sc-Labeled DO3AM-NI as a Hypoxia-Sensitive PET Probe” (Pharmaceuticals, 2022).

Tests used:
[1] = Stability constant of Sc(III) complex by 1H and 45Sc NMR batch samples and pH-potentiometric titration; pSc calculation; format: physicochemical; settings: 0.15 M NaCl, 37 °C
Description: The stability constant of the Sc(DO3AM-NI) complex was assessed by ^1H and ^45Sc-NMR studies using samples prepared in the 0.055–0.195 M acid concentration range. […] Absence of protonation and the presence of a ternary hydroxydo species formation with KScL•OH = 10.88(5) were detected at our experimental conditions. The NMR samples contained 3.32 mM ligand, ScCl3 and a constant ionic strength of 0.15 M NaCl. The samples were thermostated at 37 °C, and their ^1H- and ^45Sc-NMR spectra were recorded after 60 days. In order to ensure that the equilibrium in the samples was attained, the ^1H and ^45Sc-NMR measurements were repeated again 90 days later. The spectra were practically identical with the spectra recorded at 60 days (Figures S4 and S5). As expected, the thermodynamic stability constant of the Sc(DO3AM-NI) complex (log KScL = 22.36(4)) was considerably lower than those of Sc(III) complexes formed with DOTA, DTPA or AAZTA ligands (Table 1). A moderate decrease in terms of thermodynamic stability constants was already observed for the complexes of DO3A-monamides formed with Gd(III) ions in comparison to the stability of parent Gd(DOTA)^− chelate. Despite the lower stability constant of the complex, the Sc(III) ion was complexed completely around pH = 2.0 (in a millimolar concentration range, see Figure 2). However, it might be misleading to directly compare the stability constants of the complexes formed by ligands of different basicity (as it depends on the basicity of the ligand); therefore, we calculated and compared the pSc values (which could be treated as conditional constants) for the complexes shown in Table 1 by taking the protonation constants of ligands, the stability constants of the complex species present in solution and the hydrolysis of the Sc(III) ion (according to Ref. [23]: log βSc(OH) = −4.3, log βSc(OH)2 = −9.7, log βSc(OH)3 = −16.1, log βSc(OH)4 = −26.0 and log βSc2(OH)4 = −6.0) into account.
The equilibrium measurements were performed at constant ionic strength maintained by 0.15 M NaCl at 37 °C. For determining the protonation constants of DO3AM-NI, two parallel pH-potentiometric titrations were performed with 0.1611 M NaOH in a 5.00 cm^3 sample containing the ligand at the concentration of 2.76 mM. The stability constant of Sc(DO3AM-NI) was assessed by ^1H and ^45Sc NMR in 0.7 mL “batch” samples containing the metal and the ligand at 3.32 mM and different concentrations of strong acid (0.05–0.20 M) aged 90 days (see below). The formation of protonated and ternary hydroxydo complex species was probed by pH-potentiometric titration by titrating the preformed complex (at a concentration of 1.95 mM) with standardized NaOH solution. For the calculation of the logKMH-1L value, the VNaOH–pH data used were obtained in the pH range 1.68–11.85. The pH-potentiometric titrations were carried out with a Metrohm 785 DMP Titrino titration workstation with the use of a Metrohm-6.0233.100-combined electrode calibrated via a two-point calibration routine using KH-phthalate (pH = 4.005) and borax (pH = 9.177) buffers. The titrated samples were stirred with a magnetic stirrer, and N2 gas was bubbled through the solutions to avoid the effect of CO2. For the calculation of [H^+] from the measured pH values, the method proposed by Irving et al. was applied. For this, a 0.01M HCl solution was titrated with the standardized NaOH solution in the presence of 0.15 M NaCl ionic strength at 37 °C. The differences between the measured (pHread) and calculated pH (-log[H^+]) values were used to obtain the equilibrium H^+ concentration from the pHmeas values during the titrations. […] For the calculation of the equilibrium constants, the PSEQUAD program was used.
^1H- and ^45Sc-NMR measurements (400 MHz and 97 MHz, respectively) were performed with a Bruker DRX 400 (9.4 T) spectrometer equipped with a Bruker VT-1000 thermocontroller and a BB inverse z-gradient probe (5 mm). […]

[2] = Formation rate of Sc(DO3AM-NI) at acidic pH followed by 1H and 45Sc NMR; format: physicochemical; settings: pH = 1.52, 25 °C, 3.80 mM ligand, 4.90 mM ScCl3
Description: This is promising for the labeling studies, yet it also underlines that the so-called “batch-method” must be applied in very acidic samples for the determination of the stability constant of the Sc(DO3AM-NI) chelate.
^1H- and ^45Sc-NMR measurements (400 MHz and 97 MHz, respectively) were performed with a Bruker DRX 400 (9.4 T) spectrometer equipped with a Bruker VT-1000 thermocontroller and a BB inverse z-gradient probe (5 mm). The kinetic experiments were performed at 25 °C, whereas the equilibrium studies were performed at 37 °C in aqueous solutions using D2O (in capillary) for locking. Typical parameters of ^45Sc-NMR measurements used were pulse length p1 = 15.6 μs (90°), relaxation delay d1 = 0.1 s and 128 scans. The formation reaction of the Sc(DO3AM-NI) complex was followed by ^1H- and ^45Sc-NMR spectroscopy in a sample containing 3.80 mM ligand and 4.90 mM ScCl3 with a total acid concentration corresponding to a pH of 1.54. […] Actually, the intensity of the ^45Sc-NMR signal of Sc(III)aq could precisely be measured while that of the broad signal corresponding to the Sc(DO3AM-NI) complex could not. […] The molar integral values of the ^45Sc-NMR signal of Sc(III)aq were determined by recording the ^45Sc-NMR spectra of a 50 mM ScCl3 solution containing 0.015 M HCl as a reference sample. […]

- log KScL•OH (ternary hydroxydo species) [1]: 10.88(5)
- log KSc•L (stability constant of Sc(III) complex) [1]: 22.36(4)
- pH around which the Sc(III) ion is complexed completely ([1]; millimolar concentration range): ~2.0
Compound: O=C([O-])CN1CCN(CC(=O)[O-])CCN(CC(=O)NCCn2ccnc2[N+](=O)[O-])CCN(CC(=O)[O-])CC1.[Sc+3] [Sc(DO3AM-NI)]
- time for complex formation to reach equilibrium [2]: about twelve
